This is an account of results in the NIST ThermoML archive (doi:10.1021/je4001894).

This series is described as follows: activity coefficient (dimensionless); of the first substance listed, at infinite dilution; xn = mol fraction of the nth substance listed. As to conditions: 101 kPa, Liquid, Chromatography, x1 = 0.

Structures are written as SMILES. Numbers after ± are expanded uncertainties.

As for `CCCCCCCCCCCC` [dodecane] + CCCC[N+]1(C)CCCC1.O=S(=O)([N-]S(=O)(=O)C(F)(F)F)C(F)(F)F, the activity coefficient came out at 105 ± 7.2 (323.15 K), 93.8 ± 6.4 (333.15 K) and 83 ± 5.7 (343.15 K).

`CCO` [ethanol] + CCCC[N+]1(C)CCCC1.O=S(=O)([N-]S(=O)(=O)C(F)(F)F)C(F)(F)F: the activity coefficient worked out at 1.73 ± 0.12 (323.15 K), 1.57 ± 0.1 (333.15 K) and 1.43 ± 0.09 (343.15 K).

As for `CCO` [ethanol] + CCC[N+]1(C)CCCC1.O=S(=O)([N-]S(=O)(=O)C(F)(F)F)C(F)(F)F, the activity coefficient was 1.75 ± 0.12 (323.15 K), 1.57 ± 0.1 (333.15 K) and 1.49 ± 0.1 (343.15 K).

As to `CCc1ccccc1` [ethylbenzene] + CCCC[N+]1(C)CCCC1.O=S(=O)([N-]S(=O)(=O)C(F)(F)F)C(F)(F)F, the activity coefficient (323.15 K) is 1.83 ± 0.12, the activity coefficient (333.15 K) amounted to 1.85 ± 0.12 and the activity coefficient (343.15 K) was determined as 1.87 ± 0.13.

As for `CCCCCCC` [heptane] + CCCC[N+]1(C)CCCC1.O=S(=O)([N-]S(=O)(=O)C(F)(F)F)C(F)(F)F, the activity coefficient came out at 19.7 ± 1.4 (323.15 K), 18.4 ± 1.3 (333.15 K) and 17.5 ± 1.2 (343.15 K).

As for `CCCCCCC` [heptane] + CCC[N+]1(C)CCCC1.O=S(=O)([N-]S(=O)(=O)C(F)(F)F)C(F)(F)F, the activity coefficient is, setting by setting: (323.15 K) 24 ± 1.6; (333.15 K) 23.1 ± 1.6; (343.15 K) 22.3 ± 1.5.

Consider `C=CCCCC` [hex-1-ene] + CCCC[N+]1(C)CCCC1.O=S(=O)([N-]S(=O)(=O)C(F)(F)F)C(F)(F)F, for which the activity coefficient runs as follows: (323.15 K) 7.51 ± 0.51; (333.15 K) 7.21 ± 0.49; (343.15 K) 7.12 ± 0.49.

As for `C=CCCCC` [hex-1-ene] + CCC[N+]1(C)CCCC1.O=S(=O)([N-]S(=O)(=O)C(F)(F)F)C(F)(F)F, the activity coefficient worked out at 7.96 ± 0.54 (323.15 K), 7.75 ± 0.53 (333.15 K) and 7.65 ± 0.52 (343.15 K).

With `CCCCCC` [hexane] + CCCC[N+]1(C)CCCC1.O=S(=O)([N-]S(=O)(=O)C(F)(F)F)C(F)(F)F, the activity coefficient is, setting by setting: (323.15 K) 13.9 ± 0.95; (333.15 K) 13.6 ± 0.93; (343.15 K) 12.6 ± 0.86.

In the case of `CCCCCC` [hexane] + CCC[N+]1(C)CCCC1.O=S(=O)([N-]S(=O)(=O)C(F)(F)F)C(F)(F)F, the activity coefficient by setting is: (323.15 K) 16.5 ± 1.1; (333.15 K) 15 ± 1; (343.15 K) 14.1 ± 0.96.

`CO` [methanol] + CCCC[N+]1(C)CCCC1.O=S(=O)([N-]S(=O)(=O)C(F)(F)F)C(F)(F)F: the activity coefficient is 1.4 ± 0.09 (323.15 K), 1.28 ± 0.08 (333.15 K) and 1.18 ± 0.08 (343.15 K).

Turning to `CO` [methanol] + CCC[N+]1(C)CCCC1.O=S(=O)([N-]S(=O)(=O)C(F)(F)F)C(F)(F)F, the activity coefficient by setting is: (323.15 K) 1.38 ± 0.09; (333.15 K) 1.28 ± 0.08; (343.15 K) 1.15 ± 0.07.

In the case of `CC1CCCCC1` [methylcyclohexane] + CCCC[N+]1(C)CCCC1.O=S(=O)([N-]S(=O)(=O)C(F)(F)F)C(F)(F)F, the activity coefficient by setting is: (323.15 K) 11.5 ± 0.79; (333.15 K) 10.7 ± 0.73; (343.15 K) 10.1 ± 0.69.

Consider `CC1CCCCC1` [methylcyclohexane] + CCC[N+]1(C)CCCC1.O=S(=O)([N-]S(=O)(=O)C(F)(F)F)C(F)(F)F, for which the activity coefficient reads like this: (323.15 K) 14.1 ± 0.96; (333.15 K) 12.8 ± 0.87; (343.15 K) 12.2 ± 0.83.

As to `CC1CCCC1` [methylcyclopentane] + CCCC[N+]1(C)CCCC1.O=S(=O)([N-]S(=O)(=O)C(F)(F)F)C(F)(F)F, the activity coefficient (323.15 K) turned out to be 8.68 ± 0.59, the activity coefficient (333.15 K) was 8.24 ± 0.56 and the activity coefficient (343.15 K) is 7.85 ± 0.54.

Regarding `CC1CCCC1` [methylcyclopentane] + CCC[N+]1(C)CCCC1.O=S(=O)([N-]S(=O)(=O)C(F)(F)F)C(F)(F)F, the activity coefficient by setting is: (323.15 K) 10.3 ± 0.7; (333.15 K) 10.3 ± 0.7; (343.15 K) 9.16 ± 0.63.

On to `C[N+](=O)[O-]` [nitromethane] + CCCC[N+]1(C)CCCC1.O=S(=O)([N-]S(=O)(=O)C(F)(F)F)C(F)(F)F, for which the activity coefficient runs as follows: (323.15 K) 0.65 ± 0.04; (333.15 K) 0.58 ± 0.04; (343.15 K) 0.57 ± 0.04.

Consider `CCCCCCCCC` [nonane] + CCCC[N+]1(C)CCCC1.O=S(=O)([N-]S(=O)(=O)C(F)(F)F)C(F)(F)F, for which the activity coefficient reads like this: (323.15 K) 42.7 ± 2.9; (333.15 K) 38.3 ± 2.6; (343.15 K) 34.7 ± 2.4.

As for `CCCCCCCCC` [nonane] + CCC[N+]1(C)CCCC1.O=S(=O)([N-]S(=O)(=O)C(F)(F)F)C(F)(F)F, the activity coefficient reads like this: (323.15 K) 55.5 ± 3.8; (333.15 K) 48.7 ± 3.3; (343.15 K) 47.5 ± 3.2.

Consider `CCCCCCCC` [octane] + CCCC[N+]1(C)CCCC1.O=S(=O)([N-]S(=O)(=O)C(F)(F)F)C(F)(F)F, for which the activity coefficient was found to be 28.2 ± 1.9 (323.15 K), 25.3 ± 1.7 (333.15 K) and 23.5 ± 1.6 (343.15 K).

On to `CCCCCCCC` [octane] + CCC[N+]1(C)CCCC1.O=S(=O)([N-]S(=O)(=O)C(F)(F)F)C(F)(F)F, for which the activity coefficient (323.15 K) worked out at 35.8 ± 2.5, the activity coefficient (333.15 K) came to 31.1 ± 2.1 and the activity coefficient (343.15 K) turned out to be 30.6 ± 2.1.

For `CCCC(C)=O` [pentan-2-one] + CCCC[N+]1(C)CCCC1.O=S(=O)([N-]S(=O)(=O)C(F)(F)F)C(F)(F)F, the activity coefficient worked out at 0.8 ± 0.05 (323.15 K), 0.81 ± 0.05 (333.15 K) and 0.82 ± 0.05 (343.15 K).

In the case of `CCCC(C)=O` [pentan-2-one] + CCC[N+]1(C)CCCC1.O=S(=O)([N-]S(=O)(=O)C(F)(F)F)C(F)(F)F, the activity coefficient is 0.88 ± 0.06 (323.15 K), 0.88 ± 0.06 (333.15 K) and 0.91 ± 0.06 (343.15 K).

Consider `CCC(=O)CC` [pentan-3-one] + CCCC[N+]1(C)CCCC1.O=S(=O)([N-]S(=O)(=O)C(F)(F)F)C(F)(F)F, for which the activity coefficient runs as follows: (323.15 K) 0.73 ± 0.05; (333.15 K) 0.75 ± 0.05; (343.15 K) 0.77 ± 0.05.

Take `CCC(=O)CC` [pentan-3-one] + CCC[N+]1(C)CCCC1.O=S(=O)([N-]S(=O)(=O)C(F)(F)F)C(F)(F)F: the activity coefficient is, setting by setting: (323.15 K) 0.84 ± 0.05; (333.15 K) 0.82 ± 0.05; (343.15 K) 0.86 ± 0.06.

For `CCCO` [propan-1-ol] + CCCC[N+]1(C)CCCC1.O=S(=O)([N-]S(=O)(=O)C(F)(F)F)C(F)(F)F, the activity coefficient was 2.07 ± 0.14 (323.15 K), 1.87 ± 0.13 (333.15 K) and 1.68 ± 0.11 (343.15 K).

Regarding `CCCO` [propan-1-ol] + CCC[N+]1(C)CCCC1.O=S(=O)([N-]S(=O)(=O)C(F)(F)F)C(F)(F)F, the activity coefficient (323.15 K) is 2.17 ± 0.15, the activity coefficient (333.15 K) turned out to be 1.95 ± 0.13 and the activity coefficient (343.15 K) is 1.79 ± 0.12.

`CC(C)O` [propan-2-ol] + CCCC[N+]1(C)CCCC1.O=S(=O)([N-]S(=O)(=O)C(F)(F)F)C(F)(F)F: the activity coefficient (323.15 K) stood at 1.9 ± 0.13, the activity coefficient (333.15 K) is 1.72 ± 0.12 and the activity coefficient (343.15 K) was determined as 1.57 ± 0.1.

Regarding `CC(C)O` [propan-2-ol] + CCC[N+]1(C)CCCC1.O=S(=O)([N-]S(=O)(=O)C(F)(F)F)C(F)(F)F, the activity coefficient runs as follows: (323.15 K) 1.92 ± 0.13; (333.15 K) 1.79 ± 0.12; (343.15 K) 1.62 ± 0.11.

For the compound `c1ccncc1` [pyridine] + CCCC[N+]1(C)CCCC1.O=S(=O)([N-]S(=O)(=O)C(F)(F)F)C(F)(F)F, the activity coefficient amounted to 0.59 ± 0.04 (323.15 K), 0.59 ± 0.04 (333.15 K) and 0.59 ± 0.04 (343.15 K).

On to `c1ccncc1` [pyridine] + CCC[N+]1(C)CCCC1.O=S(=O)([N-]S(=O)(=O)C(F)(F)F)C(F)(F)F, for which the activity coefficient by setting is: (323.15 K) 0.63 ± 0.04; (333.15 K) 0.63 ± 0.04; (343.15 K) 0.64 ± 0.04.

`ClC(Cl)(Cl)Cl` [tetrachloromethane] + CCCC[N+]1(C)CCCC1.O=S(=O)([N-]S(=O)(=O)C(F)(F)F)C(F)(F)F: the activity coefficient reads like this: (323.15 K) 2.44 ± 0.17; (333.15 K) 2.45 ± 0.17; (343.15 K) 2.47 ± 0.17.

Regarding `ClC(Cl)(Cl)Cl` [tetrachloromethane] + CCC[N+]1(C)CCCC1.O=S(=O)([N-]S(=O)(=O)C(F)(F)F)C(F)(F)F, the activity coefficient is 2.55 ± 0.17 (323.15 K), 2.62 ± 0.18 (333.15 K) and 2.64 ± 0.18 (343.15 K).

In the case of `c1ccsc1` [thiophene] + CCCC[N+]1(C)CCCC1.O=S(=O)([N-]S(=O)(=O)C(F)(F)F)C(F)(F)F, the activity coefficient came out at 0.82 ± 0.05 (323.15 K), 0.83 ± 0.05 (333.15 K) and 0.84 ± 0.05 (343.15 K).

Regarding `c1ccsc1` [thiophene] + CCC[N+]1(C)CCCC1.O=S(=O)([N-]S(=O)(=O)C(F)(F)F)C(F)(F)F, the activity coefficient by setting is: (323.15 K) 0.86 ± 0.06; (333.15 K) 0.88 ± 0.06; (343.15 K) 0.89 ± 0.06.

For the compound `Cc1ccccc1` [toluene] + CCCC[N+]1(C)CCCC1.O=S(=O)([N-]S(=O)(=O)C(F)(F)F)C(F)(F)F, the activity coefficient is, setting by setting: (323.15 K) 1.25 ± 0.08; (333.15 K) 1.27 ± 0.08; (343.15 K) 1.29 ± 0.08.

Consider `Cc1ccccc1` [toluene] + CCC[N+]1(C)CCCC1.O=S(=O)([N-]S(=O)(=O)C(F)(F)F)C(F)(F)F, for which the activity coefficient (323.15 K) was 1.37 ± 0.09, the activity coefficient (333.15 K) stood at 1.38 ± 0.09 and the activity coefficient (343.15 K) stood at 1.45 ± 0.1.

Turning to `ClC(Cl)Cl` [trichloromethane] + CCCC[N+]1(C)CCCC1.O=S(=O)([N-]S(=O)(=O)C(F)(F)F)C(F)(F)F, the activity coefficient is, setting by setting: (323.15 K) 0.83 ± 0.05; (333.15 K) 0.86 ± 0.06; (343.15 K) 0.88 ± 0.06.

With `ClC(Cl)Cl` [trichloromethane] + CCC[N+]1(C)CCCC1.O=S(=O)([N-]S(=O)(=O)C(F)(F)F)C(F)(F)F, the activity coefficient turned out to be 0.85 ± 0.05 (323.15 K), 0.91 ± 0.06 (333.15 K) and 0.96 ± 0.06 (343.15 K).

In the case of `CCN(CC)CC` [triethylamine] + CCCC[N+]1(C)CCCC1.O=S(=O)([N-]S(=O)(=O)C(F)(F)F)C(F)(F)F, the activity coefficient is, setting by setting: (323.15 K) 7.07 ± 0.48; (333.15 K) 7.07 ± 0.48; (343.15 K) 7.09 ± 0.48.
